# Assays:
# blood ammonia = assay: Ammonia determination in blood (Example 5); format: in vivo, rat
# Text: The study was divided into two series with animals (male Wistar rats), each series included the following groups; Controls treated with vehicle (CV, n=8 per series), Controls treated with 3α-ethynyl-3β-hydroxyandrostan-17-one oxime (C+GAM, n=8 per series), hyperammonemic rats treated with vehicle (HAV, n=8 per series), hyperammonemic rats treated with 3α-ethynyl-3β-hydroxyandrostan-17-one oxime (HA+GAM, n=8 per series). The once daily treatment with 3α-ethynyl-3β-hydroxyandrostan-17-one oxime at 20 mg/kg or with vehicle was performed with subcutaneous injections of 1 ml/kg around 9 a.m. Treatment started one week after starting with the ammonium containing diet and continued for the whole experimental period.
# Blood was obtained from the tail of the rats (from Example 2) in the end of second week of ammonia treatment and first week of 3α-ethynyl-3β-hydroxyandrostan-17-one oxime treatment and also from the neck during the animal sacrifice. To obtain the plasma it was added EDTA […] and centrifuged at 1500 r.p.m during 5 minutes.
# Ammonia concentration in blood samples was measured using the Pocket chem BA (Woodley Equipment Company Ltd, United Kingdom), an ammonia analyzer. The device enables immediate testing and delivers results in 3 minutes and 20 s. It also eliminates the need for pre-processes such as centrifugal separation.
# PCS rats = assay: Morris water maze memory test, PCS rats (Example 9); format: in vivo, rat
# Protocol: Male Wistar rats (220-240 g) were anesthetized with isoflurane, and an end-to side porta-caval anastomosis was performed as described by Lee and Fisher (Surgery, 1961, 50, 668-672).
# Rats that were subjected to the porta-caval anastomosis procedure are herein referred to as “PCS rats”.
# 3α-ethynyl-3β-hydroxyandrostan-17-one oxime in sesame oil was administered by subcutaneous injections in the back of the rats, once daily. Two different sets of experiments were performed in hyperammonemic rats. In the first set four groups of rats were used: 1) control rats injected with vehicle; 2) hyperammonemic rats injected with vehicle; 3) control rats injected with 20 mg/Kg of 3α-ethynyl-3β-hydroxyandrostan-17-one oxime and 4) hyperammonemic rats injected with 20 mg/Kg of 3α-ethynyl-3β-hydroxyandrostan-17-one oxime. […]
# The test was carried out as described by Monfort et al. (European Journal of Neuroscience, 2007, 25, 2103-2111) using a circular pool (160 cm diameter, 40 cm height) arbitrarily divided into four quadrants. […] The time needed to find the hidden platform was recorded manually and used as a measure of learning of the task.
# Spatial memory was assessed 24 hours later by removing the platform and measuring the time spent by the rat in the quadrant where the platform was.
# [1] = target: T1, human α1β2γ2L GABAA receptors (Homo sapiens, UniProt P14867+P47870); assay: Whole-cell voltage-clamp electrophysiology, HEK-293 cells expressing α1β2γ2L GABAA receptors; format: cell-based; conditions: for GAMSA effect: α1β2γ2L, 1 μM GAMSA, 30 μM GABA, AUC
# T1 construct: expressed in transfected cells; host or cells: HEK-293, permanently transfected
# Protocol: (§1) For electrophysiology measurements the Dynaflow® system with the Resolve chip was used (Cellectricon, Göteborg, Sweden). HEK-293 cells were permanently transfected with vectors including the human CMV promoter for constitutive expression of the human α5, β3, and γ2L GABAA receptor subunits (α5β3γ2L) or the human α1, β2, and γ2L GABAA receptor subunits (α1β2γ2L). The cell lines used were selected for good reactivity to GABA and to THDOC. Before measurements cells were incubated for 15 min at 37° C. in 95% air+5% CO2 in extracellular solution (EC) containing the following: 137 mM NaCl, 5.0 mM KCl, 1.0 mM CaCl2, 1.2 mM MgCl2, 10 mM HEPES, and 10 mM glucose, 0.1% DMSO pH 7.4. Thereafter, detached cells were added to the EC solution in the Dynaflow chip bath.
# (§2) Whole-cell voltage-clamp recordings were made at room temperature (21-23° C., −17 mV with compensation for liquid junction potential as in Haage et al., 2002; Neher, 1992). Command pulses were generate and data collected by PClamp 9.0 software, DigiData 1322A converter, and AxonPatch 200B (Axon Instruments, Foster City, Calif.). Patch electrodes (2-6 MΩ) were filled with intracellular solution (IC) including: 140 mM Cs-gluconate, 3.0 mM NaCl, 1.2 mM MgCl2, 10 mM HEPES, 1.0 mM EGTA, 2 mM Mg-ATP, 0.1% DMSO, pH 7.2.
# (§3) THDOC and 3α-ethynyl-3β-hydroxyandrostan-17-one oxime were dissolved in dimethyl sulfoxide (DMSO) and thereafter diluted with EC solution to include 0.1% DMSO.
# (§4) Different protocols were used for different electrophysiology measurements. As α1β2γ2L-GABAA receptors in vivo are present within the synapse a condition resembling that situation, a short application (40 ms) of a high GABA concentration (30 μM), was used. Contrary, α5β3γ2L-GABAA receptors are present extrasynaptically, thus the conditions used were long exposures (6 s) to a low GABA concentration (0.3 μM). The EC75 concentration of THDOC was used, i.e. 100 nM with studies of α1β2γ2L and 200 nM when α5β3γ2L expressing cells were evaluated. With both cell types a pre-exposure with THDOC or THDOC plus 3α-ethynyl-3β-hydroxyandrostan-17-one oxime was used before application of GABA.
# (§5) Steroid effects in presence of GABA were normalized to controls in order to avoid the effects of inter- and intracellular variation in the measured parameters, each cell was used as its own control and the area under the curve (AUC) was analyzed.
# [2] = target: T2, human α5β3γ2L GABAA receptors (Homo sapiens, UniProt P28472+P31644); assay: Whole-cell voltage-clamp electrophysiology, HEK-293 cells expressing α5β3γ2L GABAA receptors; format: cell-based; conditions: for GAMSA effect: α5β3γ2L, 1 μM GAMSA, 0.3 μM GABA, AUC
# T2 construct: expressed in transfected cells; host or cells: HEK-293, permanently transfected
# Protocol: as §1, §2, §3, §4, §5
# [3] = HEK293, read-out: Inhibition of the THDOC enhancement of GABA
# [4] = no THDOC (GABA sole activator), listed as GAMSA
# T2 sequence (P31644 32-462): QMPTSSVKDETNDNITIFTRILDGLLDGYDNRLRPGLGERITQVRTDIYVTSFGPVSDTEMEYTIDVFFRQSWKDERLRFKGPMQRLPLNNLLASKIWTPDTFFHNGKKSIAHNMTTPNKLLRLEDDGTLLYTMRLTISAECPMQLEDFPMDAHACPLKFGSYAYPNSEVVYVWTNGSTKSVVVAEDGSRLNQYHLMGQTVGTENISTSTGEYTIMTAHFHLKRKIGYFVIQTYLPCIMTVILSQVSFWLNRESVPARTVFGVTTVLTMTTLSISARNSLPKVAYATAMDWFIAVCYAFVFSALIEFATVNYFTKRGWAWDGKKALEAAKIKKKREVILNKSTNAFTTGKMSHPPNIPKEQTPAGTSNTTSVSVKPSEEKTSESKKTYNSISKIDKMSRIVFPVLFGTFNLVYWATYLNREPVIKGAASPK
# T2 sequence (P28472 26-473): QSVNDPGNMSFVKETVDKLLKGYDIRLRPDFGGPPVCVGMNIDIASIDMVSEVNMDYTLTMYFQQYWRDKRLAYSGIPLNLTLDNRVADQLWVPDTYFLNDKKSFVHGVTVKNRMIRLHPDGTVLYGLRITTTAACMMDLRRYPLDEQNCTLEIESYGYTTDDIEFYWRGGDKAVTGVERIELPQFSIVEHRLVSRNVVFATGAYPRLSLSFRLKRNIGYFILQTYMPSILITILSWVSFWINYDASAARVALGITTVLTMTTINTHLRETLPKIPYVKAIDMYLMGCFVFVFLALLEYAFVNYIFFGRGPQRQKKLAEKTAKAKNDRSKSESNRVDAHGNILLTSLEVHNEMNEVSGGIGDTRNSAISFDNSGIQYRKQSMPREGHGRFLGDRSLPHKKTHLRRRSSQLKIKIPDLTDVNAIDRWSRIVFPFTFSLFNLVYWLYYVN
# T2 sequence (P18507 40-475 partner): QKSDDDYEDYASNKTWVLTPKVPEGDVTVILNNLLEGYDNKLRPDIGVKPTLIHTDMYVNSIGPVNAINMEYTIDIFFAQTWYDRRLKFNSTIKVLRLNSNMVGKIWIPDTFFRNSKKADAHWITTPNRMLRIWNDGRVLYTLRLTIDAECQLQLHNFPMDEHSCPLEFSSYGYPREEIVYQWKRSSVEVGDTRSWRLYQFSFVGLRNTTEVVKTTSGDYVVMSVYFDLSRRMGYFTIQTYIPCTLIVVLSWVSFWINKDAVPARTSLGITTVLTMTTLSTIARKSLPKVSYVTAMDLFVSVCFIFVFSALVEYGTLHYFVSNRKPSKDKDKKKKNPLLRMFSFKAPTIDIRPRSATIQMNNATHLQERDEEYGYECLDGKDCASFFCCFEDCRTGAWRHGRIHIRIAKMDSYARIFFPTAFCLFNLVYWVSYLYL
# T1 sequence (P14867 28-456): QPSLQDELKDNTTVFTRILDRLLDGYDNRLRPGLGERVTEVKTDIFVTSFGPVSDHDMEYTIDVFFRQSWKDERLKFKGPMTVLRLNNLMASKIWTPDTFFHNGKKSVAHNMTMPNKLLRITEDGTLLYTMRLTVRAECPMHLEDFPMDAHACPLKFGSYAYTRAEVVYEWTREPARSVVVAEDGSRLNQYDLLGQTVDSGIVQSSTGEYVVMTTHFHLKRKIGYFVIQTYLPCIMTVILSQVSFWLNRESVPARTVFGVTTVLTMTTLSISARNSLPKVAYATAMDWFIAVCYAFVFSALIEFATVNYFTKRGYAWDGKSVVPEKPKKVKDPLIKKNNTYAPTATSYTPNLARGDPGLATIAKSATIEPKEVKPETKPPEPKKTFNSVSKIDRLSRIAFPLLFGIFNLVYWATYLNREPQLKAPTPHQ
# T1 sequence (P47870 25-512 limits assumed): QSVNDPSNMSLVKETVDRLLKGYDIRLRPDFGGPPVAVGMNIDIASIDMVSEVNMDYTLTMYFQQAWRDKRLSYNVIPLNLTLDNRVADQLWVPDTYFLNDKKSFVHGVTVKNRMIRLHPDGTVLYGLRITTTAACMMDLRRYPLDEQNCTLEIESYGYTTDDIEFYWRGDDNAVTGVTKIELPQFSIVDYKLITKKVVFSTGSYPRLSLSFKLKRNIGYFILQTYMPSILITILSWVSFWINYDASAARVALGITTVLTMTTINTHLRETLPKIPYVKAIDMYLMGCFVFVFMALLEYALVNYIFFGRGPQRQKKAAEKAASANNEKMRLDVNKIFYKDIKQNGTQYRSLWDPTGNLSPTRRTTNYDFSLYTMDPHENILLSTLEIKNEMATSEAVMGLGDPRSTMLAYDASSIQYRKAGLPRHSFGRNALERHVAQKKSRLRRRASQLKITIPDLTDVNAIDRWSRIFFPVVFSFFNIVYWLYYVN
# T1 sequence (P18507 40-475 partner): as the sequence (P18507 40-475 partner) above
smiles,measurement,setting,value
C#C[C@]1(O)CC[C@@]2(C)C(CC[C@@H]3[C@@H]2CC[C@]2(C)/C(=N\O)CC[C@@H]32)C1 (stereo partly drawn) [3α-ethynyl-3β-hydroxyandrostan-17-one oxime],Blood ammonia levels,blood ammonia; control rats treated with 20 mg/kg s.c. once daily,55 ± 7 µM
same,Blood ammonia levels,blood ammonia; hyperammonemic rats treated with 20 mg/kg s.c. once daily,139 ± 15 µM
same,"Percentage of time spent in the correct quadrant, Morris water maze memory test",PCS rats; 0.7 mg/kg,34±4%
same,"Percentage of time spent in the correct quadrant, Morris water maze memory test",PCS rats; 2.5 mg/kg,39±3%
same,inhibition at 1 µM,[1]; [3],29 ± 4.7%
same,GAMSA effect,[1]; 100 nM THDOC,−29 ± 4.7%
same,GAMSA effect,[1]; no THDOC (GABA sole activator),−3.1±1.7%
same,GAMSA effect,[1]; [4],−3.1 ± 1.7%
same,inhibition at 1 µM,[2]; [3],49 ± 4.7%
same,GAMSA effect,[2]; 200 nM THDOC,−49 ± 4.7%
same,GAMSA effect,[2]; no THDOC (GABA sole activator),−3.8±1.5%
same,GAMSA effect,[2]; [4],−3.8 ± 1.5%

# From patent US10342804B2, “Steroid compound for use in the treatment of hepatic encephalopathy” (Umecrine Cognition AB, priority 2014, dated 2019)
